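Briefly, cells in 96-well plates were exposed to five compound concentrations for 48 h, and endpoints were estimated by linear interpolation. TGI is the concentration that stops growth completely.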
Columns and labels:
Assay in all cases: NCI-60 cell line screen, 48 h
BT-549 breast = test system: BT-549 breast
NCI-H460 lung = test system: NCI-H460 lung
NCI-H23 lung = test system: NCI-H23 lung
RPMI-8226 leukemia = test system: RPMI-8226 leukemia
HS 578T breast = test system: HS 578T breast
OVCAR-3 ovarian = test system: OVCAR-3 ovarian
CCRF-CEM leukemia = test system: CCRF-CEM leukemia
HOP-92 NSCLC = test system: HOP-92 NSCLC
KM12 colon = test system: KM12 colon
U251 CNS = test system: U251 CNS
UACC-62 melanoma = test system: UACC-62 melanoma
A549 NSCLC = test system: A549 NSCLC
MALME-3M melanoma = test system: MALME-3M melanoma
RXF 393 renal = test system: RXF 393 renal
SNB-75 CNS = test system: SNB-75 CNS
COLO 205 colon = test system: COLO 205 colon
SN12C renal = test system: SN12C renal
UO-31 renal = test system: UO-31 renal

| SMILES | TGI (BT-549 breast) | TGI (NCI-H460 lung) | TGI (NCI-H23 lung) | TGI (RPMI-8226 leukemia) | TGI (HS 578T breast) | TGI (OVCAR-3 ovarian) | TGI (CCRF-CEM leukemia) | TGI (HOP-92 NSCLC) | TGI (KM12 colon) | TGI (U251 CNS) | TGI (UACC-62 melanoma) | TGI (A549 NSCLC) | TGI (MALME-3M melanoma) | TGI (RXF 393 renal) | TGI (SNB-75 CNS) | TGI (COLO 205 colon) | TGI (SN12C renal) | TGI (UO-31 renal) |
| --- | --- | --- | --- | --- | --- | --- | --- | --- | --- | --- | --- | --- | --- | --- | --- | --- | --- | --- |
| NC(=O)c1cccc(N=c2oc3ccc(Br)cc3cc2-c2nc3ccccc3[nH]2)c1 | 30.4 µM | 43.6 µM | 32.7 µM | 53.4 µM | 74.5 µM | 32.1 µM | 17.3 µM | 36.4 µM | 49 µM | 31 µM | 28.5 µM | 26.4 µM | 43 µM | 43.5 µM | 23.6 µM | 35.8 µM | 34.4 µM | 20.8 µM |
| Cn1c(=O)c2c(nc3sc4c(n32)C(=O)c2c(O)ccc(O)c2C4=O)n(C)c1=O | 17.7 µM | > 59.4 µM | 21.2 µM | 2.04 µM | 64.1 µM | > 20.9 µM | 1.9 µM | 7.93 µM | 11.6 µM | > 48.7 µM | 8.5 µM | 59.6 µM | 3.09 µM | 5.59 µM | 16.1 µM | 12.1 µM | 3.93 µM | 11.6 µM |
| Cc1ccc(C(=O)Cn2c(C(=O)/C=C/c3cccs3)nc3ccccc32)cc1 | > 100 µM | > 100 µM | > 100 µM | > 100 µM | 72.6 µM | > 100 µM | 38.5 µM | > 100 µM | > 100 µM | > 100 µM | > 100 µM | > 100 µM | > 100 µM | > 100 µM | > 100 µM | > 100 µM | > 100 µM | > 100 µM |
| O=C(O)c1cc2c(cc1CC(Cc1ccc3c(c1)CCCC3)C(=O)O)CCCC2 (centres undefined) | > 100 µM | > 100 µM | > 100 µM | > 100 µM | > 100 µM | > 100 µM | > 100 µM | > 100 µM | > 100 µM | > 100 µM | > 100 µM | > 100 µM | > 100 µM | > 100 µM | > 100 µM | > 100 µM | > 100 µM | > 100 µM |
| N#Cc1cc([N+](=O)[O-])ccc1NC(=O)/C(=N\NC(=O)c1ccncc1)C(c1cnc2ccc([N+](=O)[O-])cc2n1)[N+](=O)[O-] (centres undefined) | 3.55 µM | 8.17 µM | 2.65 µM | 41.7 µM | 6.23 µM | 4.29 µM | 25.6 µM | 22.6 µM | 7.53 µM | 6.63 µM | 2.96 µM | 15.8 µM | 2.61 µM | 10.8 µM | 3.83 µM | 17.9 µM | 3.71 µM | 7.6 µM |
| C=C1CCCC(C)(C)C1CCC1(C)CCC(C(C)C(=O)OC)OO1 (centres undefined) | 9.97 µM | 3.77 µM | 8.99 µM | 25 µM | 13.8 µM | > 25 µM | > 18 µM | 2.44 µM | 2.84 µM | 7.21 µM | > 15.5 µM | 4.15 µM | > 25 µM | 11.7 µM | 7.56 µM | 13.3 µM | 8.4 µM | 1.91 µM |
| O[C@H]1[C@H](O)[C@@H](O)[C@@]2(O)CC[C@@H]1N2 | > 100 µM | > 100 µM | > 100 µM | > 52.4 µM | > 100 µM | > 100 µM | > 100 µM | > 100 µM | > 100 µM | > 100 µM | > 100 µM | > 100 µM | > 100 µM | > 100 µM | > 100 µM | > 100 µM | > 100 µM | > 100 µM |
| CCOC(=O)CCSc1nc2ccc(I)cc2c(=O)n1Cc1ccccc1 | > 94.4 µM | > 100 µM | > 64.4 µM | 33.5 µM | > 81.9 µM | > 84.5 µM | 67.4 µM | 53.5 µM | > 100 µM | > 100 µM | > 93.5 µM | > 100 µM | 48.4 µM | > 100 µM | > 100 µM | 26.9 µM | > 100 µM | 1.42 µM |
| CN(C)CCCNC(=O)CCNC(=O)c1cc(NC(=O)c2cc(NC(=O)c3cc(NC(=O)c4nccn4C)cn3C)cn2C)cn1C | > 100 µM | > 100 µM | > 100 µM | > 100 µM | > 100 µM | > 100 µM | > 100 µM | > 100 µM | > 100 µM | > 100 µM | > 100 µM | > 100 µM | > 100 µM | > 100 µM | > 100 µM | > 100 µM | > 100 µM | > 100 µM |
| NC(=O)c1ncn(C2OC(CO)C(O)C2O)c1NC=O (centres undefined) | > 100 µM | > 100 µM | > 100 µM | > 100 µM | > 100 µM | > 100 µM | > 100 µM | > 100 µM | > 100 µM | > 100 µM | > 100 µM | > 100 µM | > 100 µM | > 100 µM | > 100 µM | > 100 µM | > 100 µM | > 100 µM |
| COC(=O)[C@H](Cc1c[nH]c2ccccc12)NP(=O)(O)OC[C@H]1O[C@@H](n2cc(C)c(=O)[nH]c2=O)C[C@@H]1N=[N+]=[N-] | > 100 µM | > 100 µM | > 100 µM | > 100 µM | > 100 µM | > 100 µM | > 100 µM | > 100 µM | > 100 µM | > 100 µM | > 100 µM | > 100 µM | > 100 µM | > 100 µM | > 100 µM | > 100 µM | > 100 µM | > 100 µM |
| Cc1occc1C(=S)Nc1ccc(Cl)c(/C=N/OC(C)(C)C)c1 | 32.2 µM | 29.7 µM | 34.4 µM | 47.8 µM | 51.6 µM | 31.3 µM | 53.4 µM | 26.5 µM | 32.3 µM | 28.5 µM | 28 µM | 38.6 µM | > 56.5 µM | 31.1 µM | 56.7 µM | 34.1 µM | 31.8 µM | 27 µM |
| CC1=NNC(=O)C1C1CC(c2c[nH]c3ccccc23)=NN(C(N)=O)C1=O (centres undefined) | > 100 µM | > 100 µM | > 100 µM | > 100 µM | > 100 µM | > 100 µM | > 100 µM | > 100 µM | 88.3 µM | > 100 µM | > 100 µM | > 100 µM | > 100 µM | > 100 µM | > 100 µM | > 100 µM | > 100 µM | > 100 µM |
| CCN(CC)C1CCC(C2c3cc4c(cc3OC(N3CCOCC3)C2C)OCO4)CC1 (centres undefined) | 84.1 µM | > 100 µM | > 100 µM | > 55.5 µM | > 72.1 µM | 99.1 µM | > 100 µM | > 100 µM | > 100 µM | > 100 µM | > 100 µM | > 100 µM | 90.7 µM | 52.7 µM | > 100 µM | > 100 µM | > 100 µM | > 100 µM |
| COC(=O)C1=C(OC(=O)/C(=C/c2ccccc2)c2ccc(Cl)cc2)C(C(=O)OC)[C@@]2(O)[C@@H](C(=O)OC)[C@H](C)C[C@@H]1[C@@H]2C(=O)OC (some centres undefined) | > 100 µM | > 100 µM | > 100 µM | > 100 µM | > 100 µM | > 100 µM | > 100 µM | > 100 µM | > 100 µM | > 100 µM | > 100 µM | > 100 µM | > 100 µM | > 100 µM | > 100 µM | > 100 µM | > 100 µM | > 100 µM |
| Cc1c2c(OCC(O)CN3CCN(c4ccccc4)CC3)nn(C)c(=O)c2c(C)n1-c1ccccc1 (centres undefined) | 47.6 µM | 57.7 µM | 46.4 µM | 52.5 µM | 65.9 µM | 45.5 µM | > 100 µM | > 100 µM | > 100 µM | 30.2 µM | 32 µM | 73.7 µM | 40.7 µM | 70.2 µM | 75.5 µM | 39.6 µM | 36.5 µM | 43.2 µM |
| COc1ccc2[nH]cc(C(=O)C(=O)NC34CC5CC(CC(C5)C3)C4)c2c1 | > 100 µM | 91.3 µM | > 100 µM | 19.8 µM | > 91.1 µM | > 49.5 µM | 29.9 µM | > 100 µM | > 100 µM | > 85.3 µM | > 69.4 µM | > 100 µM | > 100 µM | 16.8 µM | > 73 µM | > 100 µM | 51.9 µM | > 100 µM |
| OC[P+](CO)(CO)C12CC3CC(CC(C3)C1)C2 | > 100 µM | > 100 µM | > 100 µM | 59.2 µM | > 100 µM | > 100 µM | 62.2 µM | > 100 µM | > 100 µM | > 100 µM | > 100 µM | > 100 µM | > 100 µM | > 100 µM | > 100 µM | > 100 µM | > 100 µM | > 100 µM |
